For assay [1], the target named is T1, Serine/threonine-protein kinase D3 (Homo sapiens) (UniProt O94806).
T1 sequence (whole entry): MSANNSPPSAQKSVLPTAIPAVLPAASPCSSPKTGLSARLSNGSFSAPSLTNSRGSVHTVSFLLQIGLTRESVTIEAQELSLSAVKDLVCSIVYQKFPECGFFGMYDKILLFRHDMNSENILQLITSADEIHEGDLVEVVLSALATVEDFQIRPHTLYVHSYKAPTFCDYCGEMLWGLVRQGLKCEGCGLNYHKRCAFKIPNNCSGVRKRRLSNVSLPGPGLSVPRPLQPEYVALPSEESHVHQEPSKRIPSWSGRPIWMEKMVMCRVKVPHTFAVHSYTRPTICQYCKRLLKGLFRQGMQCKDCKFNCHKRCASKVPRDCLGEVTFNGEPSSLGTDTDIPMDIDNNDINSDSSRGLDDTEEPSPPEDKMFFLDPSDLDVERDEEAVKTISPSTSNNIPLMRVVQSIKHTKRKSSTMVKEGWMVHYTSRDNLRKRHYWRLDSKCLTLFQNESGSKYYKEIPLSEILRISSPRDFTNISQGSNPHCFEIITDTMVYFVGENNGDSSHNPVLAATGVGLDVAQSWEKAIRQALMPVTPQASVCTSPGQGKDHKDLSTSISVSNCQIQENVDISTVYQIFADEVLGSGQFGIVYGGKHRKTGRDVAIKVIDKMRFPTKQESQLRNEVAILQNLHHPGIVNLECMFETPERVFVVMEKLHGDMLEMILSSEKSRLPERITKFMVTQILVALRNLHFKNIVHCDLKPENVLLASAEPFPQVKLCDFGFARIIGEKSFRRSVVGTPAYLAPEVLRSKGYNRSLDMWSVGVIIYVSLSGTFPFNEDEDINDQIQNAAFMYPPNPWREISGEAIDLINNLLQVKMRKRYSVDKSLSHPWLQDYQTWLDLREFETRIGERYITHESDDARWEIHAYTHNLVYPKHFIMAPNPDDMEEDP
The conditions noted are these: at 10 µM.

Assay [2] has as its target T2, Mitogen-activated protein kinase kinase kinase 19 (Homo sapiens) (UniProt Q56UN5).
T2 sequence (whole entry): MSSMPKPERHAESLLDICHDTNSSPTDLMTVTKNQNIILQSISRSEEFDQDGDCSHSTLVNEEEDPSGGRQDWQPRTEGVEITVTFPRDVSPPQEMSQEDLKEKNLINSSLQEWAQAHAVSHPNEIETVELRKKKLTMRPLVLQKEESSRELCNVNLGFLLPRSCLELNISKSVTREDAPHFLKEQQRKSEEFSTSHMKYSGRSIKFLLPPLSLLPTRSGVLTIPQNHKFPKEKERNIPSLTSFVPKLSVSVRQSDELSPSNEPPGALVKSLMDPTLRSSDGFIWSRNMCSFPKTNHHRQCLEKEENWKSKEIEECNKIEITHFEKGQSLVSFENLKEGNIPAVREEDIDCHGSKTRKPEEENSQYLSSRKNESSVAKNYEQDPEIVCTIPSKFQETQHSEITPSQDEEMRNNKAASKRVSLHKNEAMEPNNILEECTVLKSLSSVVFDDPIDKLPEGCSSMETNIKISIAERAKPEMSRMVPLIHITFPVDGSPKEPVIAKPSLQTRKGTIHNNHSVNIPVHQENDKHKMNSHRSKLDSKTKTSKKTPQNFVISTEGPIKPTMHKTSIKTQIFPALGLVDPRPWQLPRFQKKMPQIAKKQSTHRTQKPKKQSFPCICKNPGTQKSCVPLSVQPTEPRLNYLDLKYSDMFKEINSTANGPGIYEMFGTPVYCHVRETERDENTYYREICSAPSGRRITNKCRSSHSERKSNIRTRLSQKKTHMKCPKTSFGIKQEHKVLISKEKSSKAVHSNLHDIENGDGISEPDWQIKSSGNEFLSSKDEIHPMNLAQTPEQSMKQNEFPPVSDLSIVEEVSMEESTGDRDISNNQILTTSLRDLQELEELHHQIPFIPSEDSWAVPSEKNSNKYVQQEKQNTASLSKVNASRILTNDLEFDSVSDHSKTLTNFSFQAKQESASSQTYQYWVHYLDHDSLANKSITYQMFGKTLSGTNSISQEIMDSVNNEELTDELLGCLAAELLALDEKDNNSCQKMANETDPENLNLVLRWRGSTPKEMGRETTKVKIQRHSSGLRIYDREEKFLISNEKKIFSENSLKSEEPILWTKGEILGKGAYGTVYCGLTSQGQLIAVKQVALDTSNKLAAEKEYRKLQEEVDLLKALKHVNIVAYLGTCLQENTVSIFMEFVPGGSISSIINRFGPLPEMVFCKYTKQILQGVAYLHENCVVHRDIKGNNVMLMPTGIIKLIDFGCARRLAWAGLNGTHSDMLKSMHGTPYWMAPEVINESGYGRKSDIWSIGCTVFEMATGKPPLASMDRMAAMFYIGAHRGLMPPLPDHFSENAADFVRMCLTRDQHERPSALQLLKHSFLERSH
The assay is described as follows: Selectivity interaction (KinomeScan (DiscoverX)) EUB0000607a MAP3K19. The conditions noted are these: at 10 µM.

Assay [3] addresses Protein arginine N-methyltransferase 1 (Homo sapiens, UniProt Q99873). The assay is described as follows: Selectivity interaction (Transferase panel (protein, RNA, and DNA methyltransferases. and EP300 (acetyltransferase))) EUB0000270b PRMT1.

Protein arginine N-methyltransferase 1, sequence (Q99873 whole entry, looked up): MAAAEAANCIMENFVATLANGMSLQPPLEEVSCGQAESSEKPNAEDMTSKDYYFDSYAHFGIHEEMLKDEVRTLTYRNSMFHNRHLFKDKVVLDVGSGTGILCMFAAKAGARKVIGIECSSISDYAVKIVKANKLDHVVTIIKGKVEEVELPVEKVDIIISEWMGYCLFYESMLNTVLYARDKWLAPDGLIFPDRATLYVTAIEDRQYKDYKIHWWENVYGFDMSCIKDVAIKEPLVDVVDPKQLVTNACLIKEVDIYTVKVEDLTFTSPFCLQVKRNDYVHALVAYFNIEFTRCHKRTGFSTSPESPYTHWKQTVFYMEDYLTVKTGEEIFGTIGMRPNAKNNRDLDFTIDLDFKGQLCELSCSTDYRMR

For `CCN(CC)CCCCNc1ncc2cc(-c3cc(OC)cc(OC)c3)c(NC(=O)NC(C)(C)C)nc2n1`, in assay [1], the % of control was found to be 100%. `CNC(=O)Nc1ccc(-c2nc(N3CC4CCC(C3)O4)c3cnn(C4CCC5(CC4)OCCO5)c3n2)cc1` yielded a % of control in assay [2] of 100%.

On to `Cc1cc(CN)cc(C)c1-c1ncn(C)c1-c1cncn1C`, for which the values for the % activity in assay [3] (at 1 µM) and in assay [3] (at 10 µM) were over 90% and over 80%, respectively.

Values taken from ChEMBL document CHEMBL5465560, “Selectivity Literature for EUbOPEN Chemogenomic Library” (2024).
